Earlier results on one compound are cited in patent US20220288212A1, “FULLERENE P[…] AND METHODS” (Sinapu LLC, priority 2021, published 2022).

The conditions of data set [1]: room temperature.
For data set [2] the following is noted: minimum of from 2.5 to 3 grams of EGCG ingested per day.

Structures are written as SMILES.

Take `O=C(O[C@@H]1Cc2c(O)cc(O)cc2O[C@@H]1c1cc(O)c(O)c(O)c1)c1cc(O)c(O)c(O)c1` [EGCG, epigallocatechin gallate]: in data set [1], the “maximum solubility in water” value is given as 92 grams per liter. Moreover, the blood serum concentration in data set [2] is 100 to 1000 nM.
